Results: ChEMBL document CHEMBL4495565, “Cytopathic SARS-Cov2 screening on VERO-E6 cells in a large repurposing effort” (2020)
Where “and” joins values, the source holds several entries; their conditions need not be identical. Equal entries are not always repeated. Structures can show the parent of a compound that is named as a salt. Square brackets hold non-standard residues; d marks the D form. Peptide text beside a SMILES is read from it. * marks the point of attachment. dPhe(4-NHCONH2) = NC(=O)Nc1ccc(C[C@@H](N)C(=O)O)cc1; Dihydroorotyl(S) = O=C1C[C@@H](C(=O)*)NC(=O)N1; dPhe(4-Cl) = N[C@H](Cc1ccc(Cl)cc1)C(=O)O; Phe(4-NH2) = Nc1ccc(C[C@H](N)C(=O)O)cc1; d2Nal = N[C@H](Cc1ccc2ccccc2c1)C(=O)O; Lys(iPr) = CC(C)NCCCC[C@H](N)C(=O)O; d3Pal = N[C@H](Cc1cccnc1)C(=O)O

Assays:
[1] = system: SARS-CoV-2; test: microbe, parasite or virus in culture; format: functional, organism-based, Chlorocebus sabaeus, Vero C1008
[2] = in vitro; settings: chlorocebus sabaeus
[3] = in vitro; settings: chlorocebus sabaeus; remark: listed apart in the source
[4] = Severe acute respiratory syndrome coronavirus 2, Vero C1008, 48 h
[5] = VERO-E6 cells, Selectivity index
[6] = VERO-E6 cells (Vero C1008), uninfected, CC50

Structure (SMILES) | IC50 [1, 4] [µM] | selectivity ratio [2, 5] | CC50 at 48 h [3, 6] [µM] | selectivity ratio ([2]; vero c1008, Selectivity index) | CC50 at 48 h ([3]; vero c1008, CC50) [µM] | IC50 ([1]; vero c1008)
Nc1ncnc2c1c(-c1cnc3[nH]ccc3c1)nn2C1CCCC1 | 11.8 | 0.76 | 8.95 | – | – | –
Cc1ccc(Nc2ncc3c(n2)N(C)C(=O)N(c2cc(NC(=O)c4cccc(C(F)(F)F)c4)ccc2C)C3)cn1 | 5.21 | 0.12 | 0.61 | – | – | –
CC(C)n1nc(-c2cc3cc(O)ccc3[nH]2)c2c(N)ncnc21 | > 33 | – | – | 0.05 | 1.63 | –
CC(C)(C)C(=O)/C(=C/c1cccc([N+](=O)[O-])c1)n1cncn1 | 4.33 | 1.23 | 5.31 | – | – | –
Cc1[nH]c(/C=C2\C(=O)Nc3cc(-c4ccccc4)ccc32)c(C)c1CCC(=O)O | 4.1 | 0.01 | 0.03 | – | – | –
Nc1nccc2c1ncn2[C@@H]1C=C(CO)[C@@H](O)[C@H]1O | 2.07 | 0.14 | 0.3 | – | – | –
COC(=O)C[C@@](O)(CCC(C)(C)O)C(=O)O[C@@H]1C(OC)=C[C@]23CCCN2CCc2cc4c(cc2[C@@H]13)OCO4 | 0.79 | 2.46 | 1.94 | – | – | –
O=c1cc(N2CCOCC2)oc2c(-c3cccc4c3sc3ccccc34)cccc12 | 3.79 | 0.15 | 0.58 | – | – | –
Cc1nc2cnc3ccc(C#Cc4cccnc4)cc3c2n1-c1ccc(C(C)(C)C#N)cc1 | 0.11 | 1 | 0.11 | – | – | –
CC(C)(C)c1cc(C=C(C#N)C#N)cc(Br)c1O | 8.77 | 1.18 | 10.4 | – | – | –
CC(C)(C)c1ccccc1Oc1ncccc1NC(=O)Nc1ccc(OC(F)(F)F)cc1 | 7 | 1.41 | 9.9 | – | – | –
Cc1[nH]c(/C=C2\C(=O)Nc3ccc(S(=O)(=O)N(C)c4cccc(Cl)c4)cc32)c(C)c1C(=O)N1CCN(C)CC1 | 10.9 | 0.96 | 10.4 | – | – | –
OCCCNc1cc(-c2ccnc(Nc3cccc(Cl)c3)n2)ccn1 | 7.9 | 1.03 | 8.17 | – | – | –
CCS(=O)(=O)c1ccc(CC(=O)Nc2cc(Cl)c(-c3ccccc3OC(F)(F)F)c(Cl)c2)cc1 | 21 | 0.58 | 12.1 | – | – | –
O=C(C1CC1)N1CC[C@@H](Cc2n[nH]c(=O)n2-c2ccc(-c3ccc4occc4c3)cc2)C1 | 17 | – | – | 1.94 | > 33 | –
Clc1ccccc1CNC[C@H]1CC[C@H](CNCc2ccccc2Cl)CC1 | 22.7 | 1.36 | 30.9 | – | – | –
N[C@H]1CC[C@H](N[C@@H]2C[C@H]2c2ccccc2)CC1 | > 33 | 1 | > 33 | – | – | –
CC(C)[C@H]1c2ccc(F)cc2CC[C@@]1(CCN(C)CCCc1nc2ccccc2[nH]1)OC(=O)C1CC1 | 8.21 | 0.99 | 8.13 | – | – | –
COc1ccc(-c2c[nH]c3nccc(-c4ccsc4)c23)c(OC)c1 | 15.8 | 0.05 | 0.82 | – | – | –
Cc1cnc(Nc2ccc(F)cc2Cl)nc1-c1c[nH]c(C(=O)N[C@H](CO)c2cccc(Cl)c2)c1 | 5.54 | 0.35 | 1.92 | – | – | –
CNC(=O)Nc1ccc(-c2nc(N3CC4CCC(C3)O4)c3cnn(C4CCC5(CC4)OCCO5)c3n2)cc1 | 21.6 | 0.01 | 0.18 | – | – | –
COc1ccc(CNc2nc(N(CCO)CCO)nc3c2ncn3C(C)C)cc1 | 7.95 | 0.82 | 6.49 | – | – | –
N#Cc1cc2c(OCC(O)CN3CCN(C(c4ccccc4)c4ccccc4)CC3)cccc2[nH]1 (racemic; form 1) | 25.6 | 0.49 | 12.7 | – | – | –
CCN(CC)Cc1cc(Nc2ccnc3cc(Cl)ccc23)ccc1O [AMODIAQUINE] | 4.07 | 4.12 | 16.8 | – | – | –
COc1ccc(C[C@H]2NC[C@H](O)[C@H]2OC(C)=O)cc1 [ANISOMYCIN] | 0.09 | 1.11 | – | – | 0.1 | –
Cc1c(CN2CCN(C(=O)[C@H](C)O)CC2)sc2c(N3CCOCC3)nc(-c3cnc(N)nc3)nc12 [APITOLISIB] | 2.31 | 0.22 | 0.5 | – | – | –
CC[C@H](CC#N)OC(=O)N[C@@H](C)c1cccc(NC(=O)Nc2ccc(-c3cnco3)c(OC)c2)c1 [AVN-944] | 1.14 | 0.67 | 0.76 | – | – | –

Structure (SMILES) | IC50 [1, 4] [µM] | selectivity ratio [2, 5] | CC50 at 48 h [3, 6] [µM] | selectivity ratio ([2]; vero c1008, Selectivity index) | CC50 at 48 h ([3]; vero c1008, CC50) [µM] | IC50 ([1]; vero c1008)
CN1[C@@H]2CC[C@H]1C[C@@H](OC(=O)c1cc(Cl)cc(Cl)c1)C2 [BEMESETRON] | > 33 | – | 0.02 | – | – | –
Cc1cc2c(F)c(Oc3ncnn4cc(OC[C@@H](C)OC(=O)[C@H](C)N)c(C)c34)ccc2[nH]1 [BRIVANIB ALANINATE] | 6.5 | 0.4 | 2.58 | – | – | –
CCCCOCCOc1ccc(-c2ccc3c(c2)/C=C(/C(=O)Nc2ccc([S@@+]([O-])Cc4cncn4CCC)cc2)CCCN3CC(C)C)cc1 [CENICRIVIROC] | > 33 | – | 11.7 | – | – | –
C[C@H]1Cc2c([nH]c3cc(Cl)c(F)cc23)[C@@]2(N1)C(=O)Nc1ccc(Cl)cc12 [CIPARGAMIN] | > 33 | – | > 33 | – | – | –
CC(=O)N[C@H](Cc1ccc2ccccc2c1)C(=O)N[C@H](Cc1ccc(Cl)cc1)C(=O)N[C@H](Cc1cccnc1)C(=O)N[C@@H](CO)C(=O)N[C@@H](Cc1ccc(NC(=O)[C@@H]2CC(=O)NC(=O)N2)cc1)C(=O)N[C@H](Cc1ccc(NC(N)=O)cc1)C(=O)N[C@@H](CC(C)C)C(=O)N[C@@H](CCCCNC(C)C)C(=O)N1CCC[C@H]1C(=O)N[C@H](C)C(N)=O [DEGARELIX] (Ac-[d2Nal][dPhe(4-Cl)][d3Pal]S[Phe(4-NH2)](Dihydroorotyl(S))[dPhe(4-NHCONH2)]L[Lys(iPr)]P[dA]-NH2) | 20.7 | – | > 33 | – | – | –
CC(C)C[C@H](NC(=O)[C@@H](NC(=O)c1cccc(-c2ccccc2)n1)[C@@H](C)O)B(O)O [DELANZOMIB] | 1.3 | 0.35 | 0.46 | – | – | –
CC1=NN(c2ccc(C)c(C)c2)C(=O)/C1=N\Nc1cccc(-c2cccc(C(=O)O)c2)c1O [ELTROMBOPAG] | > 33 | – | 3.26 | – | – | –
Cc1cc(C)c2c(c1)[C@@H](N(Cc1cc(C(F)(F)F)cc(C(F)(F)F)c1)c1nnn(C)n1)CCCN2C[C@H]1CC[C@H](C(=O)O)CC1 [EVACETRAPIB] | > 33 | – | > 33 | – | – | –
CC1=C(/C=C/C(C)=C/C=C/C(C)=C/C(=O)Nc2ccc(O)cc2)C(C)(C)CCC1 [FENRETINIDE] | > 33 | – | 10.5 | – | – | –
Cc1ncc(NC(=O)c2ccc(CN3CCN(C)CC3)c(C(F)(F)F)c2)cc1Nc1nccc(-c2cccnc2)n1 [FLUMATINIB] | > 33 | – | > 33 | – | – | –
O=C1OC2(c3ccc(O)cc3Oc3cc(O)ccc32)c2ccccc21 [FLUORESCEIN] | 0.67 | – | > 33 | – | – | –
COCCNCc1ccc(-c2cc3nccc(Oc4ccc(NC(=S)NC(=O)Cc5ccc(F)cc5)cc4F)c3s2)nc1 [GLESATINIB] | 1.04 | 0.62 | 0.64 | – | – | –
CN1CCN(C2CCN(C(=O)Nc3cc(Oc4ccc(NC(=O)C5(C(=O)Nc6ccc(F)cc6)CC5)c(F)c4)ccn3)CC2)CC1 [GOLVATINIB] | 5.89 | – | > 33 | – | – | –
CC[n+]1c(-c2ccccc2)c2cc(N)ccc2c2ccc(N)cc21 [HOMIDIUM] | > 33 | – | 2.04 | – | – | –
Cc1cc(O)c2c(=O)c3c(O)cc(O)c4c5c(O)cc(O)c6c(=O)c7c(O)cc(C)c8c1c2c(c34)c(c78)c65 [HYPERICIN] | 0.25 | 5.24 | 1.31 | – | – | –
CC(C)C[C@H](NC(=O)CNC(=O)c1cc(Cl)ccc1Cl)B(O)O [IXAZOMIB] | > 33 | – | 2.7 | – | – | –
CN(Cc1cnc2nc(N)nc(N)c2n1)c1ccc(C(=O)N[C@@H](CCC(=O)O)C(=O)O)cc1 [METHOTREXATE] | 0.05 | – | 0.05 | – | – | –
O=C(Nc1ccc([N+](=O)[O-])cc1Cl)c1cc(Cl)ccc1O [NICLOSAMIDE] | – | – | – | – | > 33 | 4.1 µM and > 33 µM
C=CC(=O)N1CCC(Oc2cc3c(Nc4ccc(Cl)c(Cl)c4F)ncnc3cc2OC)CC1 [POZIOTINIB] | > 33 | – | 11.5 | – | – | –
O=C(c1ccc(OCCN2CCCCC2)cc1)c1c(-c2ccc(O)cc2)sc2cc(O)ccc12 [RALOXIFENE HYDROCHLORIDE] | 15.4 | – | > 33 | – | – | –
COC(=O)c1ccccc1-c1c2ccc(=N)cc-2oc2cc(N)ccc12 [RHODAMINE123] | 0.8 | – | > 33 | – | – | –
C[C@@H](OC[C@@]1(c2ccccc2)CC[C@]2(CCC(=O)N2)CN1)c1cc(C(F)(F)F)cc(C(F)(F)F)c1 [ROLAPITANT] | 19.6 | – | > 33 | – | – | –
CN(C)c1cccc(-c2c3c(=O)n(-c4ccccc4Cl)[nH]c3cc(=O)n2C)c1 [SETANAXIB] | 11.8 | – | – | 1.26 | 14.8 | –
CCCCCCCCCCCCCCOc1ccc(C(=O)O)o1 [TOFA] | 4.04 | – | > 33 | – | – | –
CC(C)(C)c1cc(/C=C(\C#N)C(N)=S)cc(C(C)(C)C)c1O [TYRPHOSTIN AG 879] | > 33 | – | > 33 | – | – | –
C/C=C/C[C@@H](C)C(=O)[C@H]1C(=O)N[C@@H](C(C)C)C(=O)N(C)CC(=O)N(C)[C@@H](CC(C)C)C(=O)N[C@@H](C(C)C)C(=O)N(C)[C@@H](CC(C)C)C(=O)N[C@@H](C)C(=O)N[C@H](C)C(=O)N(C)[C@@H](CC(C)C)C(=O)N(C)[C@@H](CC(C)C)C(=O)N(C)[C@@H](C(C)C)C(=O)N1C [VALSPODAR] | > 33 | – | 13.4 | – | – | –
Cc1c(C(=O)c2cccc3ccccc23)c2cccc3c2n1[C@H](CN1CCOCC1)CO3 [WIN-552122] | > 33 | – | 7.06 | – | – | –
